Assay results reported in PubChem BioAssay (NCI).
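Assay format: 96-well plates, 48-hour exposure. TGI is the concentration that stops growth completely.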

How the values were obtained:
Test in all cases: NCI anticancer screen, dose series, 48 h
[1] = test system: MDA-MB-435
[2] = test system: SK-MEL-5 melanoma
[3] = test system: IGROV1 ovarian
[4] = test system: NCI-H522 lung
[5] = test system: SF-295 CNS
[6] = test system: SK-MEL-28 melanoma
[7] = test system: UO-31 renal
[8] = test system: RXF 393 renal
[9] = test system: HS 578T breast
[10] = test system: NCI-H226 lung

Row | SMILES | TGI [1] [µM] | TGI [2] [µM] | TGI [3] [µM] | TGI [4] [µM] | TGI [5] [µM] | TGI [6] [µM] | TGI [7] [µM] | TGI [8] [µM] | TGI [9] [µM] | TGI [10] [µM]
1 | [O-][n+]1onc2c1CCC(=N\O)/C2=N/Nc1ccccc1 | > 100 | > 100 | > 100 | > 100 | > 100 | > 100 | > 100 | > 100 | > 100 | > 100
2 | Oc1cc(Br)cc2cccnc12 | > 60 | 15.1 | 8.22 | 7.57 | 32.7 | > 100 | 35.9 | 30.4 | > 100 | 58
3 | O=C(CC(C(=O)c1cccs1)c1ccsc1)c1cccs1 (stereo not given) | 92.4 | > 100 | > 100 | > 100 | > 100 | > 100 | > 100 | > 100 | > 100 | > 100
4 | COc1cc(C)c(/C=C/C(=O)N2C(=O)OC[C@@H]2c2ccccc2)c(C)c1 | > 100 | > 100 | > 100 | > 100 | > 100 | > 100 | > 100 | > 100 | > 100 | > 100
5 | CCOC(=O)C(/C=N\C(=S)Nc1ccc(Cl)c(Cl)c1)=C(/O)c1ccccc1 | 93.5 | > 100 | > 100 | 26.1 | > 100 | > 100 | 16.6 | > 100 | 10.5 | > 100
6 | C=CC(c1ccccc1)[C@@]1(OC(C)=O)C(=O)C(=O)OC1C1COC(C)(C)O1 (stereo not given in full) | 31.2 | 29.7 | 31.9 | 10.8 | 31.6 | 24.6 | 23.7 | 14.6 | 68.3 | 37.6
7 | CC(C)CC1C(=O)NCCC(NC(=O)C(N)Cc2ccc(O)cc2)C(=O)NC(Cc2ccccc2)C(=O)NC(Cc2ccccc2)NC1=O (stereo not given) | > 100 | > 100 | > 100 | > 100 | > 100 | > 100 | > 100 | > 100 | > 100 | > 100
8 | COc1cc(CNc2ccc3nc4n(c(=O)c3c2)CCCCC4)cc(OC)c1OC | > 100 | 50.8 | > 100 | > 100 | > 100 | > 100 | > 100 | > 100 | > 100 | > 100
9 | CC(=O)OC(C)C1C2=C(C(=O)CC1(C)O)C(=O)c1c(ccc(-c3ccc4c(c3O)C(=O)C3=C(C4=O)C(C(C)OC(C)=O)C(C)(O)CC3=O)c1O)C2=O (stereo not given) | 4.19 | 8.22 | 22.4 | 4.25 | 24 | 4.7 | 9.16 | 3.59 | 5 | 27.8
10 | O=C(CC(C(=O)c1ccco1)c1ccsc1)c1ccco1 (stereo not given) | > 100 | > 100 | > 100 | > 100 | > 100 | > 100 | > 100 | > 100 | > 100 | > 100
11 | COc1cc(OC)c2c(=O)cc(-c3ccccc3F)[nH]c2c1 | > 100 | > 100 | > 100 | > 100 | > 100 | > 100 | 84.5 | > 100 | > 100 | > 100
12 | NNC(=O)c1ccccc1NC(=O)/C(=C/c1ccccc1O)NC(=O)c1ccccc1 | > 100 | > 100 | > 100 | 47.4 | > 100 | > 100 | 24.2 | > 100 | 39.3 | > 100
13 | Cc1ccc(N=Nc2ccc(O)c(CN(C)C)c2)cc1C | 40.4 | 28.4 | 84.3 | 28.3 | > 100 | 44.7 | 53.2 | 57.8 | 56.2 | > 100
14 | O=C1c2ccccc2C(=O)[C@@]23O[C@@]12C1(Oc2cccc4cccc(c24)O1)[C@@H]1O[C@@H]1[C@@H]3O | > 59.6 | > 64.3 | 27.4 | 15.6 | 26 | > 54.1 | 24.4 | 10.4 | 51.8 | 28.9
15 | Oc1cc(-c2ccccc2)cn2c1nc1ccccc12 | > 100 | 29.7 | > 38.8 | > 25.1 | > 46.1 | > 100 | > 32.8 | > 100 | 47.7 | > 100
16 | COc1cc(NC(C)=O)ccc1C(=O)N/N=C/c1ccc(Cl)cc1Cl | 56.4 | > 100 | > 100 | > 100 | > 100 | > 100 | > 100 | 72.5 | > 100 | > 100
17 | COc1cc(/C=C2\C[C@H]3[C@@H]4CC=C5C=C(N6CCCC6)CC[C@]5(C)[C@H]4CC[C@]3(C)C2=O)cc(OC)c1OC | 5.83 | > 27.9 | 3.83 | 2.88 | 7.04 | 19.5 | 8.48 | 4.04 | 6.21 | 34.3
